Source: article PMC11990879, “Anticandidal Activity of Lipopeptides Containing an LL-37-Derived Peptide Fragment KR12” (Molecules, 2025)
Marks after values point to notes of the source that are not given here. Where a SMILES comes first, the peptide text is derived from it. The star is where a group is joined. Decanoyl = CCCCCCCCCC(=O)*; X1 = CCCCCCC(CCCC)C(=O)*

Tests used:
[1] = tested on: C. albicans biofilms cultured on polystyrene; type: cell-based, Candida albicans; settings: biofilms cultured on polystyrene
Experimental: (§1) Fungal strains were purchased from the Polish Collection of Microorganisms (Polish Academy of Science, Wroclaw, Poland). Four reference strains of Candida (C. albicans ATCC 10231, C. glabrata ATCC 15126, C. lypolytica PCM 2680, and C. tropicalis PCM 2680) were cultured on the Dextrose Sabouraud Agar (DSA, Neogen, Lansing, MI, USA). Before performing the assays, the fungi were cultured in a Sabouraud dextrose broth (DSB, Neogen, Lansing, MI, USA) for 48 h under aerobic conditions at 25 °C. Afterward, the fungal cultures were centrifuged (2500 rpm, 10 min) and resuspended in the appropriate liquid medium for appropriate inoculums for the performed assays.
Fungal suspensions in DSB were added to the wells at initial inoculums of ca. 5 × 10^6 CFU/mL and incubated under aerobic conditions, at 25 °C for 24 h, 48 h, and 72 h, in order to grow candidal biofilms of different maturity. After the appropriate time of incubation, the wells were washed with phosphoric buffered (PBS), and fresh RPMI medium supplemented with antifungals and the lipopeptides at graded concentrations (range […]) were added. The fungal biofilms were exposed to the compounds for 24 h (aerobic conditions, 25 °C). After the exposure to antifungals, the content of the wells was aspirated and a 0.01% solution of resazurin (Sigma-Aldrich, St. Louis, MO, USA) in DSB was added. Resazurin (blue) was applied as a cell viability reagent, which upon contact with living cells is reduced to a pink resorufin. The samples with the dye were incubated for 1 h at 25 °C and the absorbance was measured at 570 and 600 nm with a microplate reader (Thermo Fisher Scientific, Waltham, MA, USA). The assays were performed four times on four different days. The results are presented as the means of the measured percentage of metabolic activity (MA) of fungi in the well when compared with positive (sample with Candida in DSB) and negative controls (pure DSB), which were taken as 100% and 0%, respectively. The MA of Candida in the samples was measured according to the following formula:MA(%) = (ΔAbs of sample − ΔAbs of negative control)/(ΔAbs of positive control − ΔAbs of negative control);(1) ΔAbs = absorbance at 570 nm − absorbance at 600 nm.(2)
The MBEC was taken as the lowest concentration of antifungal which allowed us to reduce the metabolism of fungal cells to 10% (or less) of the positive control.

human red blood cells = settings: cited from earlier work
Source text: Table 2 Minimum inhibitory concentrations (MIC) and minimum fungicidal concentrations (MFC) determined for peptides and reference antifungals [g/L]. The highest antimicrobial activity is marked in green, medium values in yellow, while the weakest antifungal activity is marked in red. Minimum hemolytic concentration (MHC5%—causing hemolysis of 5% of human red blood cells) determined in previous stu | column: MHC5%

[2] = tested on: C. albicans biofilms cultured on polystyrene; type: cell-based, Candida albicans; settings: C. albicans biofilms of 24, 48 and 72 h, up to 512 mg/L
[3] = tested on: Candida strains (C. albicans, C. glabrata, C. lipolytica, C. tropicalis); type: cell-based; settings: 48 h
Experimental: as §1
The strains cultured described in Section 4.1 were suspended in the Roswell Park Memorial Institute 1640 Medium (RPMI, Sigma-Aldrich, St. Louis, MO, USA) at an initial inoculum of ca. 5 × 10^3 CFU/mL. The stock solutions (1024 mg/L) of tested compounds in RPMI were added to 96-well polystyrene plates and diluted serially to well no. 10, leaving wells 11 and 12 for fertility and sterility controls. The tested Candida strains were exposed to graded concentrations (range 0.5–256 mg/L) of the lipopeptides and conventional antifungals (benzalkonium chloride, fluconazole, and nystatin) for 48 h under aerobic conditions at 25 °C. After incubation, the results were read visually.
Then the results were read visually. Both MIC as well as the MFC assays were performed threetimes on three different days.

| MIC, range over the tested strains [3] [µg/mL] | Structure (SMILES) | MBEC 24 h [1] | MBEC 48 h [1] | MBEC 72 h [1] | MHC5% (minimum hemolytic concentration causing hemolysis of 5% of human red blood cells) (human red blood cells) [g/L] | Antibiofilm activity against any type of biofilm [2] |
| --- | --- | --- | --- | --- | --- | --- |
| – | CCCCCCCCCC(=O)N[C@@H](CCCCN)C(=O)N[C@@H](CCCNC(=N)N)C(=O)N[C@H](C(=O)N[C@H](C(=O)N[C@@H](CCC(N)=O)C(=O)N[C@@H](CCCNC(=N)N)C(=O)N[C@H](C(=O)N[C@@H](CCCCN)C(=O)N[C@@H](CC(=O)O)C(=O)N[C@@H](Cc1ccccc1)C(=O)N[C@@H](CC(C)C)C(=O)N[C@@H](CCCNC(=N)N)C(N)=O)[C@@H](C)CC)C(C)C)[C@@H](C)CC [V, C10-KR12-NH2] (Decanoyl-KRIVQRIKDFLR-NH2) | >512 * mg/L | >512 * mg/L | >512 * mg/L | 4 | did not exhibit antibiofilm activity |
| 4 to 16 | CCCCCCC(CCCC)C(=O)N[C@@H](CCCCN)C(=O)N[C@@H](CCCNC(=N)N)C(=O)N[C@H](C(=O)N[C@H](C(=O)N[C@@H](CCC(N)=O)C(=O)N[C@@H](CCCNC(=N)N)C(=O)N[C@H](C(=O)N[C@@H](CCCCN)C(=O)N[C@@H](CC(=O)O)C(=O)N[C@@H](Cc1ccccc1)C(=O)N[C@@H](CC(C)C)C(=O)N[C@@H](CCCNC(=N)N)C(N)=O)[C@@H](C)CC)C(C)C)[C@@H](C)CC (some centres unmarked) [XIX, 2-Butyloctanoic acid-KR12-NH2] (X1-KRIVQRIKDFLR-NH2) | >512 * mg/L | >512 * mg/L | >512 * mg/L | 16 | did not exhibit antibiofilm activity |
